The values below come from article PMC8716824, “Design, Synthesis and Anti-Lung Cancer Evaluation of 1, 2, 3-Triazole Tethered Dihydroartemisinin-Isatin Hybrids” (Frontiers in Pharmacology, 2021).

Read-outs that look alike come from different tables or passages of the source.

Common to all, as to type: cell-based
In assay [1] the test system is doxorubicin-resistant A549 (A549/DOX) lung cancer cells. The assay is described as follows: MTT antiproliferative assay, A549/DOX. Here is the method:
(§1) The antiproliferative activity of 1,2,3-triazole tethered dihydroartemisinin-isatin hybrids 8a-c and 9a-k against A549, multidrug-resistant A549/DOX and A549/DDP lung cancer cell lines as well as cytotoxicity towards mouse embryonic fibroblast cells NIH/3T3 were assessed by 3-(4,5-dimethylthiazol-2-yl)-2,5-diphenyltetrazolium bromide (MTT) assay, and half maximal inhibitory concentration (IC50) values were listed in Table 2. A549, A549/DOX, and A549/DDP lung cancer cells (2 × 10^3) were plated in each well of a 96-well plate and were allowed to adhere and spread for 24 h. The 1,2,3-triazole tethered dihydroartemisinin-isatin hybrids 8a-c and 9a-k were added to a final concentration of 100 μM, and the cells were cultured for 24 h at 37°C. 3-(4,5-dimethyl-2-thiazolyl)-2,5-diphenyltetrazolium bromide (MTT) solution (10 µL) was added to each well, and the cultures were incubated for an additional 4 h. A further 100 µL of […] was added and incubation continued overnight. The absorbance at 540 nm was determined in each well with a 96-well plate reader. The growth of the treated cells was compared with that of untreated cells.

The next assay deals with A549 lung cancer cells. The assay is described as follows: MTT antiproliferative assay, A549. As for the experimental part:
as §1
Background: Tetrazolium assays rely on reduction of a dye to a coloured formazan, in cell work by metabolically active cells.

The test system of assay [2] is mouse embryonic fibroblast cells NIH/3T3. The assay is described as follows: MTT cytotoxicity assay, NIH/3T3. As to conditions: for SI (selectivity index): IC50(NIH/3T3)/IC50(A549); for IC50: cytotoxicity, NIH/3T3 cells, MTT (called CC50 in method). Here is the method:
The antiproliferative activity of 1,2,3-triazole tethered dihydroartemisinin-isatin hybrids 8a-c and 9a-k against A549, multidrug-resistant A549/DOX and A549/DDP lung cancer cell lines as well as cytotoxicity towards mouse embryonic fibroblast cells NIH/3T3 were assessed by 3-(4,5-dimethylthiazol-2-yl)-2,5-diphenyltetrazolium bromide (MTT) assay, and half maximal inhibitory concentration (IC50) values were listed in Table 2.
The cytotoxicity (CC50) of the synthesized 1,2,3-triazole tethered dihydroartemisinin-isatin hybrids 8a-c and 9a-k were examined by the MTT assay in mouse embryonic fibroblast cells NIH/3T3. The compounds were dissolved in DMSO with concentrations from 1,024 to 1 μg/ml. The NIH/3T3 cells were maintained in culture medium at 37°C under 5% CO2 atmosphere. Cells were seeded in 96-well plates (1 × 10^4 cell per well) and allowed to recover for 24 h. After 72 h of exposure, cells were harvested and cell viability was assessed by MTT assay. The CC50 values were calculated by Bliss analy.

In assay [3] the test system is cisplatin-resistant A549 (A549/DDP) lung cancer cells. The assay is described as follows: MTT antiproliferative assay, A549/DDP. As for the experimental part:
as §1

The test system of assay [4] is A549, A549/DOX and A549/DDP lung cancer cell lines. The experiment in a line: MTT antiproliferative assay, ranges pooled over lung cancer cell lines. Here is the method: as §1
The mark [5] stands for this setting: range over the three lung cancer cell lines, read-out: IC50, range over A549, A549/DOX and A549/DDP.

For the compound `COc1ccc2c(c1)C(=O)C(=O)N2CCn1cc(COC2O[C@@H]3O[C@@]4(C)CC[C@H]5[C@H](C)CC[C@@H]([C@H]2C)[C@@]35OO4)nn1` (stereo partly drawn) [8b, 5-methoxy-1-(2-(4-((((3R,5aS,6R,8aS,9R,12R,12aR)-3,6,9-trimethyldecahydro-12H-3,12-epoxy[1,2]dioxepino[4,3-i]isochromen-10-yl)oxy)methyl)-1H-1,2,3-triazol-1-yl)ethyl)indoline-2,3-dione], the IC50 in assay [1] (Homo sapiens) was 32 µM; in the assay with A549 lung cancer cells (Homo sapiens), 21.6 µM; in assay [2] (Mus musculus, NIH3T3), over 100 µM; in assay [3] (A549/DDP), 19.5 µM. The “SI (selectivity index)” value in assay [2] is over 4.6.

Take `C[C@@H]1CC[C@H]2[C@@H](C)C(OCc3cn(CCN4C(=O)C(=NO)c5ccccc54)nn3)O[C@@H]3O[C@@]4(C)CC[C@@H]1[C@]32OO4` (stereo partly drawn) [9b, 3-(hydroxyimino)-1-(2-(4-((((3R,5aS,6R,8aS,9R,12R,12aR)-3,6,9-trimethyldecahydro-12H-3,12-epoxy[1,2]dioxepino[4,3-i]isochromen-10-yl)oxy)methyl)-1H-1,2,3-triazol-1-yl)ethyl)indolin-2-one]: the IC50 in assay [1] (Homo sapiens) is 26.1 µM; with A549 lung cancer cells (Homo sapiens) it was 12 µM; in assay [2] (Mus musculus, NIH3T3), over 100 µM; in assay [3] (A549/DDP), 30.3 µM. Further, the “SI (selectivity index)” value in assay [2] is listed as over 8.3.

As to `C[C@@H]1CC[C@H]2[C@@H](C)C(OCc3cn(CCN4C(=O)C(=NOCc5ccccc5)c5ccccc54)nn3)O[C@@H]3O[C@@]4(C)CC[C@@H]1[C@]32OO4` (stereo partly drawn) [9e, 3-((benzyloxy)imino)-1-(2-(4-((((3R,5aS,6R,8aS,9R,12R,12aR)-3,6,9-trimethyldecahydro-12H-3,12-epoxy[1,2]dioxepino[4,3-i]isochromen-10-yl)oxy)methyl)-1H-1,2,3-triazol-1-yl)ethyl)indolin-2-one], the IC50 in assay [1] (Homo sapiens) is 31.4 µM; with A549 lung cancer cells (Homo sapiens) it was 16.3 µM; in assay [2] (Mus musculus, NIH3T3), over 100 µM; in assay [3] (A549/DDP), 29.9 µM. Moreover, the “SI (selectivity index)” value in assay [2] was over 6.1.

As for `CCON=C1C(=O)N(CCn2cc(COC3O[C@@H]4O[C@@]5(C)CC[C@H]6[C@H](C)CC[C@@H]([C@H]3C)[C@@]46OO5)nn2)c2ccc(F)cc21` (stereo partly drawn) [9k, 3-(ethoxyimino)-5-fluoro-1-(2-(4-((((3R,5aS,6R,8aS,9R,12R,12aR)-3,6,9-trimethyldecahydro-12H-3,12-epoxy[1,2]dioxepino[4,3-i]isochromen-10-yl)oxy)methyl)-1H-1,2,3-triazol-1-yl)ethyl)indolin-2-one], the IC50 in assay [1] (Homo sapiens) was 31.1 µM; in the assay with A549 lung cancer cells (Homo sapiens), 15.8 µM; in assay [2] (Mus musculus, NIH3T3), over 100 µM; in assay [3] (A549/DDP), 28.7 µM. The “SI (selectivity index)” value in assay [2] is over 6.3.

In the case of `C[C@@H]1CC[C@H]2[C@@H](C)C(OCc3cn(CCN4C(=O)C(=NNC(N)=S)c5ccccc54)nn3)O[C@@H]3O[C@@]4(C)CC[C@@H]1[C@]32OO4` (stereo partly drawn) [9a, 2-(2-oxo-1-(2-(4-((((3R,5aS,6R,8aS,9R,12R,12aR)-3,6,9-trimethyldecahydro-12H-3,12-epoxy[1,2]dioxepino[4,3-i]isochromen-10-yl)oxy)methyl)-1H-1,2,3-triazol-1-yl)ethyl)indolin-3-ylidene)hydrazine-1-carbothioamide], the IC50 in assay [1] (Homo sapiens) is 38.4 µM; in the assay on A549 lung cancer cells (Homo sapiens), 16.3 µM; in assay [2] (Mus musculus, NIH3T3), over 100 µM; in assay [3] (A549/DDP), 30.9 µM. Besides, the “SI (selectivity index)” value in assay [2] was over 6.1.

Consider `CON=C1C(=O)N(CCn2cc(COC3O[C@@H]4O[C@@]5(C)CC[C@H]6[C@H](C)CC[C@@H]([C@H]3C)[C@@]46OO5)nn2)c2ccccc21` (stereo partly drawn) [9c, 3-(methoxyimino)-1-(2-(4-((((3R,5aS,6R,8aS,9R,12R,12aR)-3,6,9-trimethyldecahydro-12H-3,12-epoxy[1,2]dioxepino[4,3-i]isochromen-10-yl)oxy)methyl)-1H-1,2,3-triazol-1-yl)ethyl)indolin-2-one], for which the IC50 is 19.5 µM in assay [1] (Homo sapiens); 22.7 µM in the assay on A549 lung cancer cells (Homo sapiens); over 100 µM in assay [2] (Mus musculus, NIH3T3); 27.4 µM in assay [3] (A549/DDP). For the same compound, the “SI (selectivity index)” value in assay [2] is over 4.4.

For the compound `N.N.[Cl][Pt][Cl]` [cisplatin, reference compound], the IC50 in assay [1] is 19.7 µM; with A549 lung cancer cells, 9.38 µM; in assay [2] it was over 100 µM; in assay [4] (range over A549 and A549/DOX, read-out: IC50, range over A549 and A549/DOX), 9.38 to 19.7 µM; in assay [4] (setting [5]) it was 9.38 to 66.9 µM; in assay [3], 66.9 µM.

Take `CON=C1C(=O)N(CCn2cc(COC3O[C@@H]4O[C@@]5(C)CC[C@H]6[C@H](C)CC[C@@H]([C@H]3C)[C@@]46OO5)nn2)c2ccc(OC)cc21` (stereo partly drawn) [9f, 5-methoxy-3-(methoxyimino)-1-(2-(4-((((3R,5aS,6R,8aS,9R,12R,12aR)-3,6,9-trimethyldecahydro-12H-3,12-epoxy[1,2]dioxepino[4,3-i]isochromen-10-yl)oxy)methyl)-1H-1,2,3-triazol-1-yl)ethyl)indolin-2-one]: the IC50 in assay [1] (Homo sapiens) is 79.5 µM; with A549 lung cancer cells (Homo sapiens) it was 65.4 µM; in assay [2] (Mus musculus, NIH3T3), over 100 µM; in assay [3] (A549/DDP), 51.8 µM. The “SI (selectivity index)” value in assay [2] is given as over 1.5.

Consider `C[C@@H]1CC[C@H]2[C@@H](C)C(=O)O[C@@H]3O[C@@]4(C)CC[C@@H]1[C@]32OO4` [Artemisinin], for which the IC50 in assay [1] (Homo sapiens) is over 100 µM; in the assay on A549 lung cancer cells (Homo sapiens) it was over 100 µM; in assay [2] (Mus musculus, NIH3T3), over 100 µM; in assay [4] (setting [5]) it was over 100 µM; in assay [3] (A549/DDP), over 100 µM.

With `CON=C1C(=O)N(CCn2cc(COC3O[C@@H]4O[C@@]5(C)CC[C@H]6[C@H](C)CC[C@@H]([C@H]3C)[C@@]46OO5)nn2)c2ccc(F)cc21` (stereo partly drawn) [9j, 5-fluoro-3-(methoxyimino)-1-(2-(4-((((3R,5aS,6R,8aS,9R,12R,12aR)-3,6,9-trimethyldecahydro-12H-3,12-epoxy[1,2]dioxepino[4,3-i]isochromen-10-yl)oxy)methyl)-1H-1,2,3-triazol-1-yl)ethyl)indolin-2-one], the IC50 in assay [1] (Homo sapiens) is 13 µM; in the assay on A549 lung cancer cells (Homo sapiens), 9.61 µM; in assay [2] (Mus musculus, NIH3T3) it was over 100 µM; in assay [3] (A549/DDP), 38.2 µM. Also, in assay [2], the “SI (selectivity index)” value is on record as over 10.4.

On to `C[C@H]1[C@@H](O)O[C@@H]2O[C@@]3(C)CC[C@H]4[C@H](C)CC[C@@H]1[C@@]24OO3` [DHA, Dihydroartemisinin], for which the IC50 is 88 µM in assay [1] (Homo sapiens); 69.4 µM in the assay on A549 lung cancer cells (Homo sapiens); over 100 µM in assay [2] (Mus musculus, NIH3T3); 69.4 to 88 µM in assay [4] (setting [5]); 75.9 µM in assay [3] (A549/DDP). In addition, in assay [2], the “SI (selectivity index)” value was over 1.4.

For `COc1ccc2c(c1)C(=NOCc1ccccc1)C(=O)N2CCn1cc(COC2O[C@@H]3O[C@@]4(C)CC[C@H]5[C@H](C)CC[C@@H]([C@H]2C)[C@@]35OO4)nn1` (stereo partly drawn) [9h, 3-((benzyloxy)imino)-5-methoxy-1-(2-(4-((((3R,5aS,6R,8aS,9R,12R,12aR)-3,6,9-trimethyldecahydro-12H-3,12-epoxy[1,2]dioxepino[4,3-i]isochromen-10-yl)oxy)methyl)-1H-1,2,3-triazol-1-yl)ethyl)indolin-2-one], the IC50 in assay [1] (Homo sapiens) was 77.7 µM; in the assay with A549 lung cancer cells (Homo sapiens) it was 44.7 µM; in assay [2] (Mus musculus, NIH3T3), over 100 µM; in assay [3] (A549/DDP) it was 59.4 µM. Also, the “SI (selectivity index)” value in assay [2] is over 2.2.

Turning to `CCON=C1C(=O)N(CCn2cc(COC3O[C@@H]4O[C@@]5(C)CC[C@H]6[C@H](C)CC[C@@H]([C@H]3C)[C@@]46OO5)nn2)c2ccccc21` (stereo partly drawn) [9d, 3-(ethoxyimino)-1-(2-(4-((((3R,5aS,6R,8aS,9R,12R,12aR)-3,6,9-trimethyldecahydro-12H-3,12-epoxy[1,2]dioxepino[4,3-i]isochromen-10-yl)oxy)methyl)-1H-1,2,3-triazol-1-yl)ethyl)indolin-2-one], the IC50 is 20.8 µM in assay [1] (Homo sapiens); 25.6 µM in the assay with A549 lung cancer cells (Homo sapiens); over 100 µM in assay [2] (Mus musculus, NIH3T3); 33.7 µM in assay [3] (A549/DDP). Also, the “SI (selectivity index)” value in assay [2] was over 3.9.

Take `CCON=C1C(=O)N(CCn2cc(COC3O[C@@H]4O[C@@]5(C)CC[C@H]6[C@H](C)CC[C@@H]([C@H]3C)[C@@]46OO5)nn2)c2ccc(OC)cc21` (stereo partly drawn) [9g, 3-(ethoxyimino)-5-methoxy-1-(2-(4-((((3R,5aS,6R,8aS,9R,12R,12aR)-3,6,9-trimethyldecahydro-12H-3,12-epoxy[1,2]dioxepino[4,3-i]isochromen-10-yl)oxy)methyl)-1H-1,2,3-triazol-1-yl)ethyl)indolin-2-one]: the IC50 in assay [1] (Homo sapiens) was 45 µM; in the assay with A549 lung cancer cells (Homo sapiens), 73.8 µM; in assay [2] (Mus musculus, NIH3T3) it was over 100 µM; in assay [3] (A549/DDP), 61.7 µM. For the same compound, the “SI (selectivity index)” value in assay [2] is on record as over 1.3.
